Structures can show the parent of a compound that is named as a salt.
Key:
[1] = test system: human platelets (platelet-rich plasma); assay: In vitro inhibition of platelet aggregation in human (ADP-induced, PRP); format: cell-based; settings: ADP final concentration 5 μM, read-out: Platelet aggregation inhibitory activity in human, IC50
Protocol: 2. Inhibition of platelet aggregation in human
Blood was collected from healthy human volunteers with an injection syringe and mixed one volume of 3.8% of sodium citrate as an anticoagulant to 9 volumes of the blood. Successively, the obtained blood mixture was subjected to centrifugation at 120×g for 15 minutes at room temperature to obtain platelet-rich plasma (PRP). An aliquot of PRP was further subjected to centrifugation at 1,200×g for 20 minutes to obtain platelet-poor plasma (PPP). Numbers of the platelet were measured with an automatic platelet counter: Sysmex PL-100 (manufactured by Toa Iyodenshi Co.) and PRP was diluted with PPP so as to adjust a platelet concentration to be about 250,000 particles/μl. Platelet aggregation was measured by the following procedure with a 6 channel aggregometer: HEMA TRACER 1 (manufactured by NKK Co.)
(§1) After incubation of 240 μl of PRP at 37° C. for 2 minutes, 30 μl of the solvent of specimen as a control or the specimen in various concentrations was added to PRP. Further 2 minutes later, 30 μl of adenosine diphosphate (final concentration: 5 μM) was added to induce platelet aggregation. An inhibition percentage was obtained by comparing the maximum aggregation of the specimen drug group with that of control. […]

[2] = test system: guinea pig platelets (platelet-rich plasma); assay: In vitro inhibition of platelet aggregation in guinea pig (ADP-induced, PRP); format: cell-based; settings: Cavia porcellus, ADP final concentration 5 μM, read-out: Platelet aggregation inhibitory activity in guinea pig, IC50
Protocol: In vitro experiment of platelet aggregation inhibition
1. Inhibition of platelet aggregation in Guinea pig
Blood of male guinea pig was collected with an injection syringe which contains 3.8 % sodium citrate as an anticoagulant in a ratio of 1 volume to 9 volumes of the blood. Successively, the collected blood mixture was subjected to centrifugation at 120×g for 15 minutes at room temperature to obtain platelet-rich plasma (PRP). An aliquot of PRP was further subjected to centrifugation at 1,200×g for 15 minutes to obtain platelet-poor plasma (PPP). Numbers of the platelet in PRP were measured with an automatic platelet counter: Sysmex PL-100 (manufactured by Toa Iyodenshi Co.) and PRP was diluted with PPP so as to adjust a platelet concentration to be about 300,000 particles/ μl. Platelet aggregation was measured by the following procedure with a 6 channel aggregometer: HEMA TRACER 1 (manufactured by NKK Co.).
as §1, with “control or of the specimen” for “control or the specimen”, “(final concentration: 5μM) was added” for “(final concentration: 5 μM) was added”

[3] = molecular target: T1, human fibrinogen receptor GP IIb/IIIa (Homo sapiens, UniProt P05106+P08514); assay: Binding inhibition of biotinylated fibrinogen to GP IIb/IIIa; settings: purified human GP IIb/IIIa, read-out: Inhibition of GPIIb/IIIa . Fibrinogen Binding, IC50
T1 construct: Concentrated and lyophilized human platelet (20 vial) (Organon Teknika Co.) was lysed; tissue Organon Teknika Co; host or cells: human platelets (lyophilized), lysed in Triton X-100
Protocol: Experiment for binding inhibition between GP IIb/IIIa and fibrinogen
1. Purification of human fibrinogen receptor GP IIb/IIIa
Concentrated and lyophilized human platelet (20 vial) (Organon Teknika Co.) was lysed in an antienzymic solution (80 ml) (1% Triton X-100, 10 mM Tris-HCl, 150 mM NaCl, 1 mM CaCl2, 10 μM leupeptin, 1 mM phenylmethane sulfonyl fluoride, pH 7.4), allowed to incubate for an hour at 4° C., and centrifuged at 30,000×g for 15 minutes to recover the supernatant solution containing 150 mg of protein. The GP IIb/IIIa was purified according to the method of Phillips et al. [Methods in Enzymology Vol. 215, (J. J. Hawigar, Eds.), 244-263, Acedemic Press Inc., San Diego].
2. Preparation of biotinylated fibrinogen
Human fibrinogen Grade L (KABI Co.) was purified by using Shepharose CL-6B and Lysine-Sepharose. Thus purified human fibrinogen (2.3 mg/ml) was dialyzed for 3 hours with 0.1M aqueous sodium bicarbonate solution at room temperature and successively diluted to 1 mg/ml. To the solution (4.5 ml) obtained, NHC-LC-Biotin (2 mg) (Pierce Co.) was added and reacted for 1 hour at room temperature to biotinylate fibrinogen. The reaction mixture was dialyzed at 4° C. for 24 hours with TBS (20 mM Tris-HCl, 150 mM NaCl, 1 mM CaCl2, 1 mM MgCl2, pH 7.4) to obtain biotinylated fibrinogen.
3. Binding inhibition of biotinylated fibrinogen to GP IIb/IIIa
Specimen drugs were dissolved and diluted with TBS containing 1% BSA. To each solution, an equal volume of biotinylated fibrinogen (2 μg/ml) dissolved in TBS containing 1% BSA, was added. The inhibition percentage of specimen drugs were measured by the method of Mori et al. [Jpn. J. Thromb. Hemost., 2, 323-399 (1991) with small modification].
Purified GP IIb/IIIa was diluted to 1.5 μg/ml in TBS containing 0.0005% of Triton X-100. The GP IIb/IIIa solution was added to a 96 well microplate (E.I.A/R.I.A. Plate, Costar Co.) in a volume of 100 μl for each well, and incubated at 4° C. for 24 hours to immobilize GP IIb/IIIa. The microplate was washed twice with a washing solution (TBS containing 0.01% of Tween 20). Thereafter TBS containing 3.5% of BSA was added to each well in a volume of 200 μl and blocking was carried out for about an hour at room temperature. The microplate was further washed twice with the washing solution, and successively a mixture of the specimen drug and the biotinylated fibrinogen was added in a volume of 100 μl/well and incubated for 24 hours at room temperature. The microplate was thereafter washed five times, and peroxidase-labeled streptoavidin (a kit of Amersham Co.) which was previously diluted 3000 times with TBS was added in a volume of 100 μl/well and incubated for about 30 minutes at room temperature. After washing the microplate 5 times, a 0.05M phosphate-citrate buffer solution (pH5) containing o-phenylenediamine(0.4 mg/ml) (manufactured by Sigma Co.) and H2 O2 (0.012%) was added in a volume of 200 μl/well to develop color for 20-40 minutes. The reaction was stopped by addition of 0.3M sulfuric acid in a volume of 50 μl/well and absorbance at 490 nm was measured with Immunoreader NJ-200 (manufactured by Inter Med Co.). […]

T1 sequence (P08514 32-887 limits assumed): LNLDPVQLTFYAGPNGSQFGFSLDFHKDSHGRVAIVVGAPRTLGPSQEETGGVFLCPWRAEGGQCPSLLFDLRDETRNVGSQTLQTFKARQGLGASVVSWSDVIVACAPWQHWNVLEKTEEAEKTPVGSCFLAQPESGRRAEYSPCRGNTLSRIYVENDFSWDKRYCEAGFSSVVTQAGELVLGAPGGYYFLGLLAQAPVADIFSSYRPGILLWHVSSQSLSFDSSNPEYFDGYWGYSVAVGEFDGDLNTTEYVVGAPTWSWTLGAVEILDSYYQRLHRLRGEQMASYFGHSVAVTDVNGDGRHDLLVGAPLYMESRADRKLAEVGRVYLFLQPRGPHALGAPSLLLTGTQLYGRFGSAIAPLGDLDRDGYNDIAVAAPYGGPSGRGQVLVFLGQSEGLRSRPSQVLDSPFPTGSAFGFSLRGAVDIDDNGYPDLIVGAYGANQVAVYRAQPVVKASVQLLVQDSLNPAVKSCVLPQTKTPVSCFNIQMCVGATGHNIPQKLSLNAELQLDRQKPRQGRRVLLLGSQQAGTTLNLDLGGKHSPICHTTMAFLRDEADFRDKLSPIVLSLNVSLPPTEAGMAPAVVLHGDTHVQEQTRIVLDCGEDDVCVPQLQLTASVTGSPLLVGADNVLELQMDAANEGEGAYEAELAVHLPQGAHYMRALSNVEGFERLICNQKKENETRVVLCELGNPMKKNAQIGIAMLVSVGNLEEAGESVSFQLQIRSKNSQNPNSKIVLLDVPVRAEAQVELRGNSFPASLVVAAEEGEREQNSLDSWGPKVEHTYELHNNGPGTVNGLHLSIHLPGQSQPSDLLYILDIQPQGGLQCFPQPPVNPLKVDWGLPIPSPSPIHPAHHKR
T1 sequence (P08514 891-1039 partner limits assumed): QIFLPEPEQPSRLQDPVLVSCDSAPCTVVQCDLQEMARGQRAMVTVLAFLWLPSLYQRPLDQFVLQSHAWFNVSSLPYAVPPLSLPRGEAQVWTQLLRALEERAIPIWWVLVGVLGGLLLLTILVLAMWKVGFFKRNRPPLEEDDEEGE
T1 sequence (P05106 27-788): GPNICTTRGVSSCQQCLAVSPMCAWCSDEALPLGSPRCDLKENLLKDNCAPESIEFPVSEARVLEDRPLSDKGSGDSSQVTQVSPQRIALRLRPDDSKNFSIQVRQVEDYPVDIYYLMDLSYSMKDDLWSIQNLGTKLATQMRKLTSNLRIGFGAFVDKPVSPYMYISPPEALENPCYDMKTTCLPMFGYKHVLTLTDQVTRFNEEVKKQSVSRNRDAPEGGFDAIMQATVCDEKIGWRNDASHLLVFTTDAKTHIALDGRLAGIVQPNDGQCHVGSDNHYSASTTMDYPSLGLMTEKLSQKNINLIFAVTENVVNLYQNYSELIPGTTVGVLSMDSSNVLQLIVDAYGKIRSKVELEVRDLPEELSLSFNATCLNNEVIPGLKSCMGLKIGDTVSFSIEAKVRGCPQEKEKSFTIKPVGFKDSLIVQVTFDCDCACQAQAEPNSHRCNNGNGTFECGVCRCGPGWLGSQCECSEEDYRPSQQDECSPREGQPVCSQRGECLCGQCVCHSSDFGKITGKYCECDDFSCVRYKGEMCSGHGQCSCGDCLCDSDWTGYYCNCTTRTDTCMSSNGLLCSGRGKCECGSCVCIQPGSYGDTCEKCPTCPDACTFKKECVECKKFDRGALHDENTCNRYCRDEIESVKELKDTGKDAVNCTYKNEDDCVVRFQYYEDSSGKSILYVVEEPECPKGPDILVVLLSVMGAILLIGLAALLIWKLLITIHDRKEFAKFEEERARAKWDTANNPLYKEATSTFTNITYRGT

SMILES | IC50 [1] [nM] | IC50 [2] [nM] | IC50 [3] [nM]
N=C(c1ccc(C(=O)Nc2ccc3c(c2)CC(CC(=O)O)CC3)cc1)N1CCSCC1 (stereo not drawn) [Example 13, 7-[[4-(thiomorpholinoiminomethyl)benzoyl]amino]-1,2,3,4-tetrahydronaphthalene-2-acetic acid hydrochloride] | 60 | 170 | 0.28
C#CCN=C(N)c1ccc(C(=O)Nc2ccc3c(c2)CC(CC(=O)O)CC3)cc1 (stereo not drawn) [Example 25, 7-[[4-(N^2-propargylamidino)benzoyl]amino]-1,2,3,4-tetrahydronaphthalene-2-acetic acid hydrochloride] | 100 | 280 | 0.18

— patent US5719145A, “Amidine derivatives and platelet aggregation inhibitor containing the same” (Mitsui Toatsu Chemicals, Inc., priority 1996, dated 1998)
